Biological target: T1, SIRT1 (Homo sapiens, UniProt Q96EB6)
T1 sequence (Q96EB6 1-747): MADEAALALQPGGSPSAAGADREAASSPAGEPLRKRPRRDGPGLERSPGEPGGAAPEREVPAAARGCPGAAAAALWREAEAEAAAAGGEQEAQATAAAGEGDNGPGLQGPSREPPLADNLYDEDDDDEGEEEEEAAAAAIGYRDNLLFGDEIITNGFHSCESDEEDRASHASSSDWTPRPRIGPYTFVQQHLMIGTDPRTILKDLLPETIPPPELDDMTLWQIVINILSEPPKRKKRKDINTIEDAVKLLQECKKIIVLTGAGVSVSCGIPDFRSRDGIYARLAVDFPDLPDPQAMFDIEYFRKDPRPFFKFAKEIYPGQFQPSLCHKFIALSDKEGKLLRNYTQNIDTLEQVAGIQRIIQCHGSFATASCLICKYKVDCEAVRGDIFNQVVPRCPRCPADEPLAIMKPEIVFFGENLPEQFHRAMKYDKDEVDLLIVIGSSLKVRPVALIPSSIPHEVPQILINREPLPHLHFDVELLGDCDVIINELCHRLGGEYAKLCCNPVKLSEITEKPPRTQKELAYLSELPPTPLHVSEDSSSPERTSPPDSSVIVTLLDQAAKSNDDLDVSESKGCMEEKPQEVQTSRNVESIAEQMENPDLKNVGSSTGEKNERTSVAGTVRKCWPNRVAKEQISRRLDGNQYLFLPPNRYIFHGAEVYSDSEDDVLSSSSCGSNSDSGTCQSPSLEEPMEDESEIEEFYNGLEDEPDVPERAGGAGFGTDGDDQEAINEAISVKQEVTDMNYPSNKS
Assay: Mass spectrometry based assay to identify modulators of SIRT1 activity (deacetylation of p53-based acetylated peptide substrate)
Assay type: biochemical
Details: SIRT1 activation; for Emax: 25 min, read-out: % FOLD ACT. (percent maximum fold activation)
Excerpt: A mass spectrometry based assay was used to identify modulators of SIRT1 activity. The mass spectrometry based assay utilizes a peptide having 20 amino acid residues as follows: Ac-EE-K(biotin)-GQSTSSHSK(Ac)NleSTEG-K(5TMR)-EE-NH2 (SEQ ID NO: 1) wherein K(Ac) is an acetylated lysine residue and Nle is a norleucine. The peptide is labeled with the fluorophore 5TMR (excitation 540 nm/emission 580 nm) at the C-terminus. The sequence of the peptide substrate is based on p53 with several modifications. In addition, the methionine residue naturally present in the sequence was replaced with the norleucine because the methionine may be susceptible to oxidation during synthesis and purification.
The mass spectrometry assay is conducted as follows: […] peptide substrate and 120 μM βNAD^+ is incubated with 10 nM SIRT1 for 25 minutes at 25° C. in a reaction buffer (50 mM Tris-acetate pH 8, 137 mM NaCl, 2.7 mM KCl, 1 mM MgCl2, 5 mM DTT, 0.05% BSA). Test compounds may be added to the reaction as described above. The SirT1 gene is cloned into a T7-promoter containing vector and transformed into BL21(DE3). After the 25 minute incubation with SIRT1, 10 μL of 10% formic acid is added to stop the reaction. Reactions are sealed and frozen for later mass spec analysis. Determination of the mass of the substrate peptide allows for precise determination of the degree of acetylation (i.e. starting material) as compared to deacetylated peptide (product).
A control for inhibition of sirtuin activity is conducted by adding 1 μL of 500 mM nicotinamide as a negative control at the start of the reaction (e.g., permits determination of maximum sirtuin inhibition). A control for activation of sirtuin activity is conducted using 10 nM of sirtuin protein, with 1 μL of DMSO in place of compound, to determine the amount of deacetylation of the substrate at a given timepoint within the linear range of the assay. This timepoint is the same as that used for test compounds and, within the linear range, the endpoint represents a change in velocity.
For the above assay, SIRT1 protein was expressed and purified as follows. The SirT1 gene was cloned into a T7-promoter containing vector and transformed into BL21(DE3). The protein was expressed by induction with 1 mM IPTG as an N-terminal His-tag fusion protein at 18° C. overnight and harvested at 30,000×g. Cells were lysed with lysozyme in lysis buffer (50 mM Tris-HCl, 2 mM Tris[2-carboxyethyl]phosphine (TCEP), 10 μM ZnCl2, 200 mM NaCl) and further treated with sonication for 10 min for complete lysis. The protein was purified over a Ni-NTA column (Amersham) and fractions containing pure protein were pooled, concentrated and run over a sizing column (Sephadex S200 26/60 global). The peak containing soluble protein was collected and run on an Ion-exchange column (MonoQ). Gradient elution (200 mM-500 mM NaCl) yielded pure protein. This protein was concentrated and dialyzed against dialysis buffer (20 mM Tris-HCl, 2 mM TCEP) overnight. The protein was aliquoted and frozen at −80° C. until further use.

Compound	Emax [%]	EC1.5
O=C(Nc1ccncc1)N1CCCOc2ccc(-c3cccc(C(F)(F)F)c3)nc21 [Compound 558, N-(pyridin-4-yl)-7-(3-(trifluoromethyl)phenyl)-3,4-dihydropyrido[3,2-b][1,4]oxazepine-5(2H)-carboxamide]	> 200	B (EC1.5 1-25 μM)
CC1(C)CN(C(=O)Nc2ccncc2)c2nc(-c3cccc(F)c3)ccc2O1 [Compound 561]	> 200	B (EC1.5 1-25 μM)
O=C(Oc1cccnc1)N1CCOc2ccc(-c3cccc(C(F)(F)F)c3)nc21 [Compound 562]	≤ 200	C (EC1.5>25 μM)
CN1C(=O)CN(C(=O)Nc2cccc(N3CCOCC3)n2)c2nc(-c3cccc(C(F)(F)F)c3)ccc21 [Compound 563]	> 200	A (EC1.5<1.0 μM)
Cc1cnccc1NC(=O)N1CCOc2ccc(-c3cccc(C(F)(F)F)c3)nc21 [Compound 564]	≤ 200	B (EC1.5 1-25 μM)
O=C(Nc1cc(C(F)(F)F)ccn1)N1CCOc2ccc(-c3cccc(C(F)(F)F)c3)nc21 [Compound 565]	≤ 200	B (EC1.5 1-25 μM)
O=C(Nc1ncc(F)cc1F)N1CCOc2ccc(-c3cccc(C(F)(F)F)c3)nc21 [Compound 567]	> 200	B (EC1.5 1-25 μM)
O=C(Nc1ncccc1F)N1CCOc2ccc(-c3cccc(C(F)(F)F)c3)nc21 [Compound 568]	> 200	B (EC1.5 1-25 μM)
Cc1cccnc1NC(=O)N1CCOc2ccc(-c3cccc(C(F)(F)F)c3)nc21 [Compound 569]	≤ 200	C (EC1.5>25 μM)
Cc1cc(NC(=O)N2CCOc3ccc(-c4cnn(C)c4C)nc32)cc(C)n1 [Compound 572]	> 200	B (EC1.5 1-25 μM)
Cc1cc(NC(=O)N2CCOc3ccc(-c4c(C)noc4C)nc32)cc(C)n1 [Compound 573]	> 200	B (EC1.5 1-25 μM)
Cc1cc(NC(=O)N2CCOc3ccc(-c4ccnn4C)nc32)cc(C)n1 [Compound 575]	> 200	B (EC1.5 1-25 μM)
Cc1cncc(NC(=O)N2CCCOc3ccc(-c4cccc(C(F)(F)F)c4)nc32)c1 [Compound 576]	> 200	B (EC1.5 1-25 μM)
Cc1cc(NC(=O)N2CCCOc3ccc(-c4cccc(C(F)(F)F)c4)nc32)ccn1 [Compound 577]	> 200	B (EC1.5 1-25 μM)
O=C(Nc1ccnc(N2CCC2)c1)N1CCCOc2ccc(-c3cccc(C(F)(F)F)c3)nc21 [Compound 579]	> 200	A (EC1.5<1.0 μM)
O=C(Nc1ccncn1)N1CCCOc2ccc(-c3cccc(F)c3)nc21 [Compound 580]	> 200	B (EC1.5 1-25 μM)
Cc1cncc(NC(=O)N2CCCOc3ccc(-c4cccc(F)c4)nc32)c1 [Compound 581]	> 200	B (EC1.5 1-25 μM)
Cc1cc(NC(=O)N2CCCOc3ccc(-c4cccc(F)c4)nc32)ccn1 [Compound 582]	> 200	B (EC1.5 1-25 μM)
Cc1csc(NC(=O)N2CCCOc3ccc(-c4cccc(F)c4)nc32)n1 [Compound 583]	> 200	B (EC1.5 1-25 μM)

Compound	Emax [%]	EC1.5
O=C(Nc1ccnc(N2CCC2)c1)N1CCCOc2ccc(-c3cccc(F)c3)nc21 [Compound 584]	> 200	B (EC1.5 1-25 μM)
CC1(C)CN(C(=O)Nc2cncc(F)c2)c2nc(-c3cccc(Cl)c3)ccc2O1 [Compound 601]	> 200	A (EC1.5<1.0 μM)
Cc1cncc(NC(=O)N2CCCOc3ccc(-c4cccc(N5CCCC5)c4)nc32)c1 [Compound 610]	> 200	B (EC1.5 1-25 μM)
CC1(C)CN(C(=O)Nc2cncc(F)c2)c2nc(-c3cccc(F)c3)ccc2O1 [Compound 621]	> 200	B (EC1.5 1-25 μM)
O=C(Nc1ccncn1)N1CCCOc2ccc(-c3cccc(Cl)c3)nc21 [Compound 625]	> 200	A (EC1.5<1.0 μM)
O=C(Nc1ccncn1)N1CCCOc2ccc(-c3cccc(N4CCCC4)c3)nc21 [Compound 627]	> 200	B (EC1.5 1-25 μM)
Cc1csc(NC(=O)N2CCCOc3ccc(-c4cccc(N5CCCC5)c4)nc32)n1 [Compound 628]	≤ 200	B (EC1.5 1-25 μM)
Cc1cncc(NC(=O)N2CC(C)(C)Oc3ccc(-c4cccc(CN5CCCC5)c4)nc32)c1 [Compound 629, 2,2-dimethyl-N-(5-methylpyridin-3-yl)-6-(3-(pyrrolidin-1-ylmethyl)phenyl)-2H-pyrido[3,2-b][1,4]oxazine-4(3H)-carboxamide]	> 200	B (EC1.5 1-25 μM)
CC1(C)CN(C(=O)Nc2cccnc2)c2nc(-c3cccc(CN4CCCC4)c3)ccc2O1 [Compound 630]	> 200	B (EC1.5 1-25 μM)
Cc1cc(NC(=O)N2CCOc3ccc(-c4cc(C)nn4C)nc32)cc(C)n1 [Compound 632]	> 200	B (EC1.5 1-25 μM)
O=C(NC1(c2ccccn2)CC1)N1CCOc2ccc(-c3cccc(C(F)(F)F)c3)nc21 [Compound 633, N-(1-(pyridin-2-yl)cyclopropyl)-6-(3-(trifluoromethyl)phenyl)-2H-pyrido[3,2-b][1,4]oxazine-4(3H)-carboxamide]	≤ 200	C (EC1.5>25 μM)
CC1(C)CC(NC(=O)N2CCOc3ccc(-c4cccc(C(F)(F)F)c4)nc32)CC(C)(C)N1 [Compound 634]	≤ 200	C (EC1.5>25 μM)
Cc1ccc(-c2ccc3c(n2)N(C(=O)Nc2ccnc(C)c2)CCCO3)cn1 [Compound 635]	≤ 200	C (EC1.5>25 μM)
Cc1cncc(NC(=O)N2CCCOc3ccc(-c4ccc(C)nc4)nc32)c1 [Compound 636]	≤ 200	C (EC1.5>25 μM)
Cc1ccc(-c2ccc3c(n2)N(C(=O)Nc2cc(C)nc(C)c2)CCCO3)cn1 [Compound 637]	> 200	B (EC1.5 1-25 μM)
Cc1cc(OCC(O)CO)nc(NC(=O)N2CCCc3ccc(-c4cccc(C(F)(F)F)c4)nc32)n1 (stereo not shown) [Compound 640]	> 200	B (EC1.5 1-25 μM)
O=C(Oc1cccc(OCC(O)CO)c1)N1CCCc2ccc(-c3cccc(C(F)(F)F)c3)nc21 (stereo not shown) [Compound 641, 3-(2,3-dihydroxypropoxy)phenyl 7-(3-(trifluoromethyl)phenyl)-3,4-dihydro-1,8-naphthyridine-1(2H)-carboxylate]	≤ 200	B (EC1.5 1-25 μM)
O=C(c1cccc(OCC(O)CO)c1)N1CCCc2ccc(-c3cccc(C(F)(F)F)c3)nc21 (stereo not shown) [Compound 642, (3-(2,3-dihydroxypropoxy)phenyl)(7-(3-(trifluoromethyl)phenyl)-3,4-dihydro-1,8-naphthyridin-1(2H)-yl)methanone]	≤ 200	C (EC1.5>25 μM)
O=C(Nc1ncccn1)N1CCCOc2ccc(-c3cccc(C(F)(F)F)c3)nc21 [Compound 643]	> 200	B (EC1.5 1-25 μM)

— patent US9556201B2, “Bicyclic pyridines and analogs as sirtuin modulators” (GLAXOSMITHKLINE LLC, priority 2009, dated 2017)
